Here are results for 1 compound from PMC5670239, “Structural basis for mutually exclusive co-transcriptional nuclear cap-binding complexes with either NELF-E or ARS2” (Nature Communications, 2017).

What is called Kd is the free concentration of one partner at which half of the binding sites on the other are occupied at equilibrium, for simple one-to-one binding. Low readings indicate higher affinity, high ones lower affinity.

One test addresses T1, CBC-ARS2 827–871 (Homo sapiens, UniProt P52298).
T1 sequence (P52298 1-156): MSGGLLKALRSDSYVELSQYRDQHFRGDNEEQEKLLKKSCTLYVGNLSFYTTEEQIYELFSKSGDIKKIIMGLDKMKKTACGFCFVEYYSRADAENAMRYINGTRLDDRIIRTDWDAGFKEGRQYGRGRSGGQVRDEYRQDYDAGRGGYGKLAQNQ
T1 sequence (Q09161 20-790 partner): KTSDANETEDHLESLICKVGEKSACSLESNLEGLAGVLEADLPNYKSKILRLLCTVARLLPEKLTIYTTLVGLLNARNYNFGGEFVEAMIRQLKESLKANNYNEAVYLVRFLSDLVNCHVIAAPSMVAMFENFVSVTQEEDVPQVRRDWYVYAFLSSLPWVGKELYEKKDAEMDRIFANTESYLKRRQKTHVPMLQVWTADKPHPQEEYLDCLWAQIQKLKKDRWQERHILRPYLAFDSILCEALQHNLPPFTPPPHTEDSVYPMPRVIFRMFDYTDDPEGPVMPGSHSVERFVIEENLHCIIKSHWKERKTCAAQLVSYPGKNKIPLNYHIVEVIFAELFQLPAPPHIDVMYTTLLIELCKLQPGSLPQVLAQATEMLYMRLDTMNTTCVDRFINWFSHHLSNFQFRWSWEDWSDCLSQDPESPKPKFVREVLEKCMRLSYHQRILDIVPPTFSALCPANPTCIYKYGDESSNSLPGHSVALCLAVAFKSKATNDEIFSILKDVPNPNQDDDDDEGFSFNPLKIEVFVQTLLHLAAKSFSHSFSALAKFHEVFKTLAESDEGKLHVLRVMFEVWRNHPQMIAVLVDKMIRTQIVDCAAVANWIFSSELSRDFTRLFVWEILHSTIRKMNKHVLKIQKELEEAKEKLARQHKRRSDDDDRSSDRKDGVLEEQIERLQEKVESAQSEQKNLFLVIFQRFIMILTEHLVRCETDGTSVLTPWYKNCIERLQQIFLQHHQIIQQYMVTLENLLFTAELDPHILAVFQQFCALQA
T1 sequence (Q9BXP5 832-876 partner): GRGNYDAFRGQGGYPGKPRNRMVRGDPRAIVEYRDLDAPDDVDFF
The test is described as follows: ITC, m^7GTP titrated to CBC saturated with ARS2 827–871. It is filed as binding. From the text: Supplementary Figure 7. Influence of ARS2 and NELF-E on m7GTP binding to CBC.
Representative isothermal titration calorimetry data, presented as in the caption to Figure 1C,
allowing determination of the affinity of CBC to m7GTP in the absence (left) or in the
presence of bound ARS2827-871 (middle) or NELF-E244-380 (right). CBC or CBC saturated
with 2.2 molar excess of ARS2827-871 or NELF-E244-380 in the sample cell was titrated by
m7GTP. KD values represent the average from at least two independent experiments (see […]
Background: Isothermal titration calorimetry measures the heat released or taken up as one component is titrated into another.

Another test has as its target T2, CBC (Homo sapiens, UniProt P52298).
T2 sequence (P52298 1-156): T1 sequence (P52298 1-156)
T2 sequence (Q09161 20-790 partner): T1 sequence (Q09161 20-790 partner)
The test is described as follows: ITC, binding to CBC without cap analogue. As to conditions: ITC (MicroCal ITC200), 25 °C, 20 mM HEPES, 120 mM NaCl, 2 mM TCEP, pH 7.8, single-site fit, no cap analogue pre-bound, mean ± SD of at least two independent experiments. From the text:
hARS2 isoform-4 (871 residues, UniProt:Q9BXP5-4, also known as isoform-e, NP_001122326) constructs (residues 147–871, 147–845, 763–871, 763–845, 827–871) hNELF-E (NM_002904.5) (244–380, 244–360) and hPHAX (NM_032177.3) (1–394, 103–294, 103–308, 103–327) were cloned into pETM11 (EMBL). Full-length hNELF-E (1–380) was cloned into pFASTBac and CBP20 into pETM30. Primers used are given in Supplementary Table 2. All constructs were expressed in E. coli Rosetta 2 (Novagen), except full-length NELF-E and CBP80ΔNLS (CBP80 with residues 1–19 deleted[2]), which were expressed in High Five insect cells (Life Technology). Cells were harvested and lysed by sonication in lysis buffer containing 50 mM HEPES, pH 7.8, 300 mM NaCl, 10% (v/v) glycerol, 5 mM β-mercaptoethanol. Lysates were clarified by centrifugation and applied on an equilibrated Ni-sepharose column (GE Healthcare), washed with 20 mM imidazole in lysis buffer, and eluted with 300 mM imidazole in lysis buffer. While dialysing into 20 mM HEPES, pH 7.8, 120 mM NaCl, 10% (v/v) glycerol, 5 mM β-mercaptoethanol, the N-terminal 6-histidine-tag was cleaved with His-tagged Tobacco Etch Virus (TEV) protease overnight in a ratio 1:100 mg TEV per mg protein. The cleaved protein was further purified first on Ni-sepharose to remove TEV and then using an anion exchange column (HiTrap Q, GE Healthcare) followed if necessary by a Heparin column (GE Healthcare). In both cases a NaCl gradient from 50 to 800 mM in 20 mM HEPES 7.8, 0.5 mM tris(2-carboxyethyl)phosphine was used. To reconstitute the CBC heterodimer, cleared His-tagged CBP20 lysate was first immobilised on a Ni-sepharose column. After washing the column with lysis buffer, the cleared CBP80 lysate was applied to the column and further purification steps performed as described above. To remove the access of CBP20 the flow through of the Ni-column after TEV cleavage was loaded on an anion exchange column (HiTrap Q, GE Healthcare) and CBC eluted by a NaCl gradient as described above. In the text we refer to CBP80ΔNLS and CBP80ΔNLS-CBP20 as CBP80 and CBC, respectively. […]

Take `C[n+]1cn([C@@H]2O[C@H](COP(=O)(O)OP(=O)([O-])OP(=O)(O)O)[C@@H](O)[C@H]2O)c2nc(N)[nH]c(=O)c21` [m^7GTP]: the equilibrium dissociation constant (Kd) at CBC-ARS2 827–871 (25 °C, pH 7.8, CBC saturated with 2.2 molar excess of ARS2 827–871, titrated by m^7GTP, mean ± SD of 2 experiments, SD) is 18 ± 1 nM; on CBC, 100 nM; on CBC (SD), 126 ± 45 nM. The “Increase of the affinity of CBC for cap (m^7GTP) by saturating ARS2” value on CBC-ARS2 827–871 (compared to m^7GTP binding to CBC alone) is given as ~ 7 factor.
